Assay results taken from patent publication US20140140988A1, “COMBINATION THERAPY OF AN AFUCOSYLATED CD20 ANTIBODY WITH A MDM2 INHIBITOR” (Roche Glycart AG, priority 2010, published 2014).

System: human Z138 mantle cell lymphoma cell line
Test: Tumor growth inhibition study in vivo, Z138 mantle cell lymphoma xenograft
Parameters: species or system SCID beige mice
Description: Cells were co-injected with Matrigel.
Experimental study protocol was reviewed and approved by local government. […] Continuous health monitoring was carried out on regular basis. Diet food (Provimi Kliba 3337) and water (acidified pH 2.5-3) were provided ad libitum.
Animals were controlled daily for clinical symptoms and detection of adverse effects.
The corresponding vehicle was administered on the same days.

## CCOc1cc(C(C)(C)C)ccc1C1=N[C@@](C)(c2ccc(Cl)cc2)[C@@](C)(c2ccc(Cl)cc2)N1C(=O)N1CCN(CCCS(C)(=O)=O)CC1 [MDM2 inhibitor]
Day 35, single agent 75 mg/kg p.o. once daily, three times weekly over 18 days (FIG. 2)
  tumor growth inhibition: 35%
Day 35, single agent 150 mg/kg p.o. once daily, three times weekly over 18 days (FIG. 3)
  tumor growth inhibition: 78%

## B-HH6-B-KV1 GE: afucosylated type II anti-CD20 antibody, humanized B-Ly1, glycoengineered; VH SEQ ID No.7, VL SEQ ID No. 20
Day 35 after tumor cell inoculation, single agent 0.5 mg/kg i.p. q7d once weekly for 3 weeks, compared to the control group
  tumor growth inhibition: 59%
